Results published in patent US8952024B2, “Herbicidal pyrimidone derivatives” (E I du Pont de Nemours and Company, priority 2009, dated 2015).

Columns and labels:
Assay type in all cases: in vivo
[1] = test system: umbrella sedge (Cyperus difformis); assay: Test B flooded paddy test; details: for Plant response rating, Flood, Sedge, Umbrella: 250 g ai/ha, flooded paddy test, visual rating on 0 to 100 scale (0 no effect, 100 complete control) after 13 to 15 days; for Plant response rating, Sedge, Umbrella: Flood (flooded paddy test), 13 to 15 days; for Sedge, Umbrella plant response rating: Flood, 31 g ai/ha, scale 0 to 100 (0 no effect, 100 complete control)
How it was run: (§1)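 Flooded-pot test: water raised to 3 cm above soil when treating, compound put in the water, level unchanged thereafter. Plants were at 2 leaves. Readout after 13 to 15 days, visual, relative to controls; 0 signifies no effect and 100 complete control.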

[2] = test system: barnyardgrass (Echinochloa crus-galli); assay: Test B flooded paddy test; details: for Plant response rating, Flood, Barnyardgrass: 250 g ai/ha, flooded paddy test, visual rating on 0 to 100 scale (0 no effect, 100 complete control) after 13 to 15 days; for Plant response rating, Barnyardgrass: Flood (flooded paddy test), 13 to 15 days; for Barnyardgrass plant response rating: Flood, 31 g ai/ha, scale 0 to 100 (0 no effect, 100 complete control)
How it was run: as §1

[3] = test system: rice (Oryza sativa); assay: Test B flooded paddy test; details: for Plant response rating, Flood, Rice: 250 g ai/ha, flooded paddy test, visual rating on 0 to 100 scale (0 no effect, 100 complete control) after 13 to 15 days; for Plant response rating, Rice: Flood (flooded paddy test), 13 to 15 days; for Rice plant response rating: Flood, 31 g ai/ha, scale 0 to 100 (0 no effect, 100 complete control)
How it was run: as §1

[4] = test system: ducksalad (Heteranthera limosa); assay: Test B flooded paddy test; details: for Plant response rating, Flood, Ducksalad: 250 g ai/ha, flooded paddy test, visual rating on 0 to 100 scale (0 no effect, 100 complete control) after 13 to 15 days; for Plant response rating, Ducksalad: Flood (flooded paddy test), 13 to 15 days; for Ducksalad plant response rating: Flood, 31 g ai/ha, scale 0 to 100 (0 no effect, 100 complete control)
How it was run: as §1

[5] = test system: wheat (Triticum aestivum); assay: Test A pre-/postemergence plant response; details: for Wheat plant response rating: visual injury, 0 to 100 scale (0 no effect, 100 complete control), approx. ten days
How it was run: (§2)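 Plants grown from seed in a loam soil and sand mix received test compounds both as a preemergence soil spray and, at the same time, as a postemergence spray at the one- to two-leaf stage. Injury was judged visually against untreated controls roughly ten days later, 0 meaning no effect and 100 complete control.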

[6] = test system: barnyardgrass (Echinochloa crus-galli); assay: Test A pre-/postemergence plant response; details: for Barnyardgrass plant response rating: visual injury, 0 to 100 scale (0 no effect, 100 complete control), approx. ten days
How it was run: as §2

[7] = test system: velvetleaf (Abutilon theophrasti); assay: Test A pre-/postemergence plant response; details: for Velvetleaf plant response rating: visual injury, 0 to 100 scale (0 no effect, 100 complete control), approx. ten days
How it was run: as §2

[8] = test system: large crabgrass (Digitaria sanguinalis); assay: Test A pre-/postemergence plant response; details: for Crabgrass, Large plant response rating: visual injury, 0 to 100 scale (0 no effect, 100 complete control), approx. ten days
How it was run: as §2

[9] = test system: pigweed (Amaranthus retroflexus); assay: Test A pre-/postemergence plant response; details: for Pigweed plant response rating: visual injury, 0 to 100 scale (0 no effect, 100 complete control), approx. ten days
How it was run: as §2

[10] = test system: corn (Zea mays); assay: Test A pre-/postemergence plant response; details: for Corn plant response rating: visual injury, 0 to 100 scale (0 no effect, 100 complete control), approx. ten days
How it was run: as §2

[11] = test system: morningglory (Ipomoea spp.); assay: Test A pre-/postemergence plant response; details: for Morningglory plant response rating: visual injury, 0 to 100 scale (0 no effect, 100 complete control), approx. ten days
How it was run: as §2

[12] = test system: giant foxtail (Setaria faberii); assay: Test A pre-/postemergence plant response; details: for Foxtail, Giant plant response rating: visual injury, 0 to 100 scale (0 no effect, 100 complete control), approx. ten days
How it was run: as §2

[13] = 62 g ai/ha, scale of 0 to 100 where 0 is no effect and 100 is complete control
[14] = 125 g ai/ha, scale 0 to 100, 0 is no effect, 100 is complete control
[15] = Postemergence, 125 g ai/ha, 0 to 100 scale where 0 is no effect and 100 is complete control
[16] = Preemergence, 125 g ai/ha, 0 to 100 scale, 0 = no effect, 100 = complete control
[17] = Preemergence, 500 g ai/ha, 0 to 100 scale, 0 = no effect, 100 = complete control

With `O=C1CCCC(O)=C1C(=O)c1cnc(-c2ccc(F)c(F)c2)n(C2CCCCC2)c1=O` [Compound 198] the “Plant response rating, Flood, Sedge, Umbrella” value [1] was 80, the “Plant response rating, Sedge, Umbrella” value [1, 13] was 20 and the “Plant response rating, Sedge, Umbrella” value [1, 14] was 80. The “Sedge, Umbrella plant response rating” value [1] was 20, the “Plant response rating, Flood, Barnyardgrass” value [2] was 35 and the “Plant response rating, Barnyardgrass” value [2, 13] was 0. For the same compound, the “Plant response rating, Barnyardgrass” value [2, 14] was 30, the “Barnyardgrass plant response rating” value [2] was 0 and the “Plant response rating, Flood, Rice” value [3] was 50. For the same compound, the “Plant response rating, Rice” value [3, 13] was 20, the “Plant response rating, Rice” value [3, 14] was 20 and the “Rice plant response rating” value [3] was 15. For the same compound, the “Plant response rating, Flood, Ducksalad” value [4] was 95, the “Plant response rating, Ducksalad” value [4, 13] was 50 and the “Plant response rating, Ducksalad” value [4, 14] was 85. The “Ducksalad plant response rating” value [4] was 40, the “Plant response rating, Wheat” value [5, 15] was 0 and the “Wheat plant response rating” value ([5]; Postemergence, 500 g ai/ha) was 0. For the same compound, the “Plant response rating, Wheat” value [5, 16] was 0, the “Plant response rating, Wheat” value [5, 17] was 20 and the “Plant response rating, Barnyardgrass” value [6, 15] was 70. For the same compound, the “Barnyardgrass plant response rating” value ([6]; Postemergence, 500 g ai/ha) was 100, the “Plant response rating, Barnyardgrass” value [6, 16] was 0 and the “Plant response rating, Barnyardgrass” value [6, 17] was 50. The “Plant response rating, Velvetleaf” value [7, 15] was 100, the “Velvetleaf plant response rating” value ([7]; Postemergence, 500 g ai/ha) was 100 and the “Plant response rating, Velvetleaf” value [7, 16] was 0. The “Plant response rating, Velvetleaf” value [7, 17] was 80, the “Plant response rating, Crabgrass, Large” value [8, 15] was 70 and the “Crabgrass, Large plant response rating” value ([8]; Postemergence, 500 g ai/ha) was 100. For the same compound, the “Plant response rating, Crabgrass, Large” value [8, 16] was 10, the “Plant response rating, Crabgrass, Large” value [8, 17] was 90 and the “Plant response rating, Pigweed” value [9, 15] was 90. The “Pigweed plant response rating” value ([9]; Postemergence, 500 g ai/ha) was 100, the “Plant response rating, Pigweed” value [9, 16] was 10 and the “Plant response rating, Pigweed” value [9, 17] was 100. The “Plant response rating, Corn” value [10, 15] was 0, the “Corn plant response rating” value ([10]; Postemergence, 500 g ai/ha) was 30 and the “Plant response rating, Corn” value [10, 16] was 0. The “Plant response rating, Corn” value [10, 17] was 20, the “Plant response rating, Morningglory” value [11, 15] was 100 and the “Morningglory plant response rating” value ([11]; Postemergence, 500 g ai/ha) was 100. For the same compound, the “Plant response rating, Morningglory” value [11, 16] was 0, the “Plant response rating, Morningglory” value [11, 17] was 30 and the “Plant response rating, Foxtail, Giant” value [12, 15] was 60. The “Foxtail, Giant plant response rating” value ([12]; Postemergence, 500 g ai/ha) was 90, the “Plant response rating, Foxtail, Giant” value [12, 16] was 70 and the “Plant response rating, Foxtail, Giant” value [12, 17] was 70.

For `CCc1ccc(-n2c(-c3cccc(F)c3)ncc(C(=O)C3=C(O)CCCC3=O)c2=O)cc1` [Compound 204], the “Plant response rating, Flood, Sedge, Umbrella” value [1] was 95, the “Plant response rating, Sedge, Umbrella” value [1, 13] was 75 and the “Plant response rating, Sedge, Umbrella” value [1, 14] was 90. For the same compound, the “Sedge, Umbrella plant response rating” value [1] was 70, the “Plant response rating, Flood, Barnyardgrass” value [2] was 60 and the “Plant response rating, Barnyardgrass” value [2, 13] was 15. For the same compound, the “Plant response rating, Barnyardgrass” value [2, 14] was 25, the “Barnyardgrass plant response rating” value [2] was 10 and the “Plant response rating, Flood, Rice” value [3] was 60. For the same compound, the “Plant response rating, Rice” value [3, 13] was 0, the “Plant response rating, Rice” value [3, 14] was 0 and the “Rice plant response rating” value [3] was 0. The “Plant response rating, Flood, Ducksalad” value [4] was 100, the “Plant response rating, Ducksalad” value [4, 13] was 70 and the “Plant response rating, Ducksalad” value [4, 14] was 90. For the same compound, the “Ducksalad plant response rating” value [4] was 50, the “Plant response rating, Wheat” value [5, 15] was 0 and the “Wheat plant response rating” value ([5]; Postemergence, 500 g ai/ha) was 40. The “Plant response rating, Wheat” value [5, 16] was 20, the “Plant response rating, Wheat” value [5, 17] was 40 and the “Plant response rating, Barnyardgrass” value [6, 15] was 100. The “Barnyardgrass plant response rating” value ([6]; Postemergence, 500 g ai/ha) was 100, the “Plant response rating, Barnyardgrass” value [6, 16] was 30 and the “Plant response rating, Barnyardgrass” value [6, 17] was 80. For the same compound, the “Plant response rating, Velvetleaf” value [7, 15] was 100, the “Velvetleaf plant response rating” value ([7]; Postemergence, 500 g ai/ha) was 100 and the “Plant response rating, Velvetleaf” value [7, 16] was 50. The “Plant response rating, Velvetleaf” value [7, 17] was 90, the “Plant response rating, Crabgrass, Large” value [8, 15] was 60 and the “Crabgrass, Large plant response rating” value ([8]; Postemergence, 500 g ai/ha) was 100. The “Plant response rating, Crabgrass, Large” value [8, 16] was 40, the “Plant response rating, Crabgrass, Large” value [8, 17] was 100 and the “Plant response rating, Pigweed” value [9, 15] was 100. The “Pigweed plant response rating” value ([9]; Postemergence, 500 g ai/ha) was 100, the “Plant response rating, Pigweed” value [9, 16] was 100 and the “Plant response rating, Pigweed” value [9, 17] was 100. The “Plant response rating, Corn” value [10, 15] was 0, the “Corn plant response rating” value ([10]; Postemergence, 500 g ai/ha) was 10 and the “Plant response rating, Corn” value [10, 16] was 20. The “Plant response rating, Corn” value [10, 17] was 20, the “Plant response rating, Morningglory” value [11, 15] was 30 and the “Morningglory plant response rating” value ([11]; Postemergence, 500 g ai/ha) was 100. For the same compound, the “Plant response rating, Morningglory” value [11, 16] was 0, the “Plant response rating, Morningglory” value [11, 17] was 80 and the “Plant response rating, Foxtail, Giant” value [12, 15] was 30. For the same compound, the “Foxtail, Giant plant response rating” value ([12]; Postemergence, 500 g ai/ha) was 100, the “Plant response rating, Foxtail, Giant” value [12, 16] was 20 and the “Plant response rating, Foxtail, Giant” value [12, 17] was 90.
